Reference: patent publication US7825256B2, “Inducible nitric oxide synthase dimerization inhibitors” (Kalypsys, Inc., priority 2004, dated 2010)

Assays:
[1] = molecular target: T1, iNOS (Rattus norvegicus, UniProt Q06518); experiment: LPS challenge (LPS induced iNOS in vivo); conditions: for ED50: ED50 class
T1 construct: from tissue; host or cells: whole animal: male Lewis rats after LPS injection; blood samples collected
From the text: Inhibition of induction of iNOS can be quantified via the LPS challenge. Inflammation, edema, and the onset of sepsis can be observed following an injection of lipopolysaccharide (LPS), a substance produced by Gram-negative bacteria. […] (Iuvone T et al., Evidence that inducible nitric oxide synthase is involved in LPS-mediated plasma leakage in rat skin through the activation of nuclear factor-κB, Br J Pharm 1998:123 1325-1330.) As described above, the level of nitric oxide in the specimen can be quantified by correlation with plasma nitrate or nitrite levels via chemiluminescence, fluorescence, spectrophotometric assays, or by any method known in the art which provides adequate sensitivity and reproducibility, including those described above.
Male Lewis rats weighing 150-250 g are used in the studies. Rats may be fasted for up to 16 hours prior to the administration of LPS. Free access to water is maintained. Test compounds are administered with LPS or alone. Compounds are dissolved in the vehicle of 0.5% methycele/0.025% Tween 20 or 20% encapsin for oral administration. For the intravenous dosing, compounds are dissolved in saline or 0.5-3% DMSO/20% encapsin. The dosing volumes are 1-2 ml for oral and 0.3-1 ml for intravenous administration.
LPS is injected intravenously (under anesthesia) or intraperitoneally in sterile saline at a dose between 0.1-10 mg/kg in a volume not excess to 1 ml. The needle is 26-30 gauge. […] In routine screening experiments, rats are sacrificed 1.5-6 hr after LPS injection and a terminal bleeding is performed under anesthesia to collect 1-3 ml blood samples and then animals are then euthanized by CO2.

[2] = test system: rat; experiment: Carrageenan test (inflamed pain); assay type: in vivo; conditions: inhibition class
From the text: Injection of carrageenan subcutaneously into the hind foot (paw) of a rat induces robust inflammation and pain. The inflammatory response begins 1-2 hrs post-carrageenan injection and persists for at least five hours following inoculation. In addition, the rat's inflamed hind paw is sensitive to noxious (hyperalgesia) or innocuous (allodynia) stimuli, compared to the contralateral hind paw. Compounds can be evaluated in this model for anti-hyperalgesia and anti-inflammatory activity. […] It is possible that some compounds will affect the inflamed paw and not affect the responses of the contralateral paw.
Embodiments of the carrageenan foot edema test are performed with materials, reagents and procedures essentially as described by Winter, et al., (Proc. Soc. Exp. Biol. Med., 111, 544 (1962)). […] The rats are evaluated for their responsiveness to noxious (paw pinch, plantar test) or innocuous (cold plate, von Frey filaments) stimuli.
In a prophylactic embodiment, following determination of “Pre-carrageenan” responses, a subplantar injection of the test compound or a placebo are administered. […] Three hours (and optionally five hours) after carrageenan injection, the rats are evaluated for their responsiveness to noxious or innocuous stimuli and the paw volume was again measured. […]

SMILES	ED50 [1] [mg/kg]	inhibition at 16 mg/kg ([1]; at 16 mg/kg) [%]	Carrageenan Inflamed Pain at 30 mg/kg [2]
Cc1cc(C2CCCN2C(=O)NCCc2ccc3c(c2)OCO3)nc(-n2ccnc2)n1 (stereo not shown) [Example 4, 2-(2-Imidazol-1-yl-6-methyl-pyrimidin-4-yl)-pyrrolidine-1-carboxylic acid (2-benzo[1,3]dioxol-5-yl-ethyl)-amide]	< 10		
Cc1cc(C2CCCN2C(=O)CNCc2ccc3c(c2)OCO3)nc(-n2ccnc2)n1 (stereo not shown) [Example 5]		64	
CN(CCCNCc1ccc2c(c1)OCO2)c1nc(-n2ccnc2)ns1 [Example 2, N′-Benzo[1,3]dioxol-5-ylmethyl-N-(3-imidazol-1-yl-[1,2,4]thiadiazol-5-yl)-N-methyl-propane-1,3-diamine]	< 10		− ((−) = <40% inhibition)
